Values of other authors as cited in patent US8420131B2, “Composition for obesity treatment” (priority 2011, dated 2013).

Tests used:
[1] = tested on: human white preadipocytes
[2] = in vivo
[3] = in vivo; remark: listed apart in the source
[4] = patients with PCOS
[5] = sixty depressed patients, added to imipramine therapy
[6] = animal study
[7] = humans

## CC(/C=C/C=C(\C)C(=O)O)=C\C=C\C=C(C)\C=C\C=C(/C)C(=O)O [crocetin]
Dose of 50 mg/kg versus orlistat at 10 mg/kg
  potency compared with orlistat: comparable
Mice fed on a high fat diet
  fat deposits: significantly reduced
lipase
  inhibition of the effect of lipase: potently inhibit

## COc1ccc2cc3[n+](cc2c1OC)CCc1cc2c(cc1-3)OCO2 [berberine]
[1]
  adipogenesis: inhibit adipogenesis

## O[C@H]1[C@H](O)[C@@H](O)[C@H](O)[C@@H](O)[C@H]1O [inositol]
[2]
  decreasing the number of panic attacks, compared with fluvoxamine: superior
[3]
  symptoms of depressed patients: significant improvement
[4]
  action of insulin / insulin sensitivity: increases the action of insulin

## [Zn] [zinc]
[5]
  depression scores: significantly reduced

## CC(/C=C/C=C(\C)C(=O)O[C@@H]1O[C@H](CO[C@@H]2O[C@H](CO)[C@@H](O)[C@H](O)[C@H]2O)[C@@H](O)[C@H](O)[C@H]1O)=C\C=C\C=C(C)\C=C\C=C(/C)C(=O)O[C@@H]1O[C@H](CO[C@@H]2O[C@H](CO)[C@@H](O)[C@H](O)[C@H]2O)[C@@H](O)[C@H](O)[C@H]1O [crocin]
lipase
  inhibition of the effect of lipase: potently inhibit

## [Mg+2] [magnesium]
[6]
  effect compared with imipramine: comparable
[7]
  effectiveness in treating depression compared with imipramine: as effective as imipramine
